Experimental data from patent publication US10611729B2, “Farnesoid X receptor antagonists” (City of Hope, priority 2014, dated 2020).
Where two headings read alike, the source gives them in different places.

Assays:
FXR [1] = molecular target: T1, FXR (Homo sapiens, UniProt Q96RI1); assay: GeneBLAzer FXR cell-based antagonistic assay (in presence of 400 nM GW4064); set-up: the Gal4 DBD was fused to the LBD of FXR in this assay; host or cells: GeneBLAzer FXR-UAS-bla HEK 293T cells; settings: for IC50: with 400 nM GW4064, read-out: GB FXR Cell Anta. IC50
T1 sequence (Q96RI1 262-486 limits assumed): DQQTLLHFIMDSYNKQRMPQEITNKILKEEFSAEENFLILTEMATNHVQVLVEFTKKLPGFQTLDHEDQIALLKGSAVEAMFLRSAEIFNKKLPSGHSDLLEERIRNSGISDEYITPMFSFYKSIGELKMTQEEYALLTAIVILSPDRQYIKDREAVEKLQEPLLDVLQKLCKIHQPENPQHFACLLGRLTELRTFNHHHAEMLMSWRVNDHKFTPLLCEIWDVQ
Experimental: A GeneBLAzer FXR cell-based assay was used to investigate the cellular activities of the 1,3,4-trisubstituted-pyrazol-4-carboxamide analogs. The assay detects the levels of a […] reporter controlled by a promoter containing the binding site of the DNA binding domain (DBD) of the GAL4 transcription factor; the Gal4 DBD was fused to the LBD of FXR in this assay.^35
FXR transactivation assays were performed using GeneBLAzer FXR-UAS-bla HEK 293T cells (Invitrogen). Cells were maintained according to the manufacturer's instructions. […] Plates were then incubated in dark for 90 min at room temperature before measuring the fluorescent emissions at 460 nm and 535 nm (using excitation at 400 nm) with an Envision plate reader with bottom read capacity. After background signal subtraction for individual emission channels, emission signals at 460 and 535 nm from each well were used to determine the ratio of 460 nm/535 nm. […] The % activation was calculated using equation 2.
The % inhibition was calculated using equation 3.

[2] = tested on: GeneBLAzer FXR-UAS-bla HEK 293T cells; settings: human, 16 h
Experimental: To examine if certain chemical antagonistic effect was caused by cytotoxicity, the same GeneBLAzer FXR cells were used to perform cytotoxicity assay. This assay was set up like the FXR agonistic assay, with the exception of signal reading. Instead of detecting the reporter activities, CellTiter-Glo® assay was used to detect cell viability. DMSO with cells or without cells group were served as negative (0% Inhibition) or positive (100% Inhibition), respectively.
Cytotoxicity assays were performed side-by-side with the FXR agonistic assay using GeneBLAzer FXR-UAS-bla HEK 293T cells with CellTiter-Glo® Luminescent Cell Viability Assay reagent (Promega). Briefly, cells were maintained in DMEM supplemented with 10% dialyzed FBS, 0.1 mM non-essential amino acids, 25 mM HEPES, 100 μg/ml of hygromycin B, 100 μg/ml of zeocin, 100 units/ml penicillin and 100 μg/ml streptomycin in regular tissue culture flasks. […] As a positive control, the wells in column 24 of each plate were filled with 30 μL assay medium along with 0.5% DMSO. The final DMSO concentration was 0.5% in each assay well. After a 16 h incubation in a cell culture incubator at 37° C., the cell plates were cooled at room temperature for 20 min and then CellTiter-Glo® reagent 20 μl/well was added followed by an incubation for 20 min in the dark to allow the development of optimal luminescence signal. The luminescence signal from each well in plates was collected with an Envision plate reader equipped with Ultra-sensitive Luminescence detector. The DMSO group and no cell group served as negative (0% activation) and positive (100% activation) controls, respectively. The % inhibition was calculated using equation 4 below.

FXR [3] = molecular target: T1, FXR; assay: FXR TR-FRET binding assay (DY246 fluorescent probe); settings: for inhibition at 0.493 µM: at 493 nM; for IC50: mean ± SE; for inhibition at 0.164 µM: at 164 nM
Experimental: The FXR TR-FRET binding assay was performed as previously described^23 with modifications. […] The plate was spun down after a brief shake and incubated at room temperature for 20 min. The TR-FRET emission signals at 520 nm and 490 nm for each well was then collected using a PHERAstar plate reader (BMG LABTECH, Cary, N.C.) with an excitation wavelength of 337 nm, 100-μs delay time, and 200-μs integration time. The 520 nm/490 nm ratio from each well was then calculated. […] The % inhibition of tested chemicals at given concentration was calculated based on negative and positive controls using equation 1.

[4] = read-out: GB FXR Cell Anta. % Inh.
[5] = read-out: FXR TR-FRET Binding % Inh.

inhibition at 40 µM (FXR [1]; [4]) [%] | IC50 (FXR [1]) [nM] | IC50 (FXR [3]) [nM] | inhibition at 0.164 µM (FXR [3]; [5]) [%] | FXR antagonistic activity, SAR statement in words (FXR [1]) | Compound | further results
72 ± 2.2 | 2490 ± 6 | 24.3 ± 0.6 |  |  | Cc1ccc(-c2nn(-c3ccc(F)cc3)cc2C(=O)Nc2ccc(C)c(S(=O)(=O)N3CCOCC3)c2)cc1 [Compound 4a, 1-(4-fluorophenyl)-N-(4-methyl-3-(morpholinosulfonyl)phenyl)-3-p-tolyl-1H-pyrarazole-4-carboxamide] | GB FXR Cell Cyto % Inh. ([2]; 40 μM): 18.5 ± 1.0%; inhibition at 0.493 µM (FXR [3]; [5]): 95 ± 1.2%
60.6 ± 0.9 | 5910 ± 150 | 10.4 ± 0.9 | 99.3 ± 1.1 |  | Cc1ccc(-c2nn(-c3cccc(Cl)c3)cc2C(=O)Nc2ccc(C)c(S(=O)(=O)N3CCOCC3)c2)cc1 [Compound 4b, 1-(3-Chlorophenyl)-N-(4-methyl-3-(morpholinosulfonyl)phenyl)-3-(p-tolyl)-1H-pyrazole-4-carboxamide] | 
89.9 ± 1.9 | 1240 ± 120 | 14.1 ± 0.3 | 120 ± 7.8 |  | Cc1ccc(-c2nn(-c3ccc(Cl)cc3Cl)cc2C(=O)Nc2ccc(C)c(S(=O)(=O)N3CCOCC3)c2)cc1 [Compound 4c, 1-(2,4-Dichlorophenyl)-N-(4-methyl-3-(morpholinosulfonyl)phenyl)-3-(p-tolyl)-1H-pyrazole-4-carboxamide] | 
54.8 ± 1.3 | 22300 ± 1140 | 23.9 ± 2.1 | 77.5 ± 4.3 |  | Cc1ccc(-c2nn(-c3cccc(C(F)(F)F)c3)cc2C(=O)Nc2ccc(C)c(S(=O)(=O)N3CCOCC3)c2)cc1 [Compound 4d, N-(4-Methyl-3-(morpholinosulfonyl)phenyl)-3-(p-tolyl)-1-(3-(trifluoromethyl)phenyl)-1H-pyrazole-4-carboxamide] | GB FXR Cell Cyto % Inh. ([2]; 40 μM): 7.3 ± 0.2%
79.1 ± 2.4 | 7910 ± 1160 | 17.7 ± 0.4 | 102 ± 2.8 |  | Cc1ccc(-c2nn(-c3nc4ccccc4s3)cc2C(=O)Nc2ccc(C)c(S(=O)(=O)N3CCOCC3)c2)cc1 [Compound 4e, 1-(Benzo[d]thiazol-2-yl)-N-(4-methyl-3-(morpholinosulfonyl)phenyl)-3-(p-tolyl)-1H-pyrazole-4-carboxamide] | GB FXR Cell Cyto % Inh. ([2]; 13.3 μM): 11.5 ± 0.2 (13.3 μM) %; fold improvement of activity compared to Z26476908 (FXR [3]; text says FXR antagonistic activity / potency in hFXR, figures fit TR-FRET IC50): 3 fold
99.1 ± 4.4 | 1690 ± 180 | 49.1 ± 9.9 |  | retention of the antagonistic activity | Cc1ccc(-c2nn(C(C)C)cc2C(=O)Nc2ccc(C)c(S(=O)(=O)N3CCOCC3)c2)cc1 [Compound 4f, 1-Isopropyl-N-(4-methyl-3-(morpholinosulfonyl)phenyl)-3-(p-tolyl)-1H-pyrazole-4-carboxamide] | inhibition at 4.4 µM (FXR [3]; [5]): 131 ± 3.8%
 | 11510 ± 70 | 52.5 ± 4.1 |  | retention of the antagonistic activity | CCCCn1cc(C(=O)Nc2ccc(C)c(S(=O)(=O)N3CCOCC3)c2)c(-c2ccc(C)cc2)n1 [Compound 4g, 1-Butyl-N-(4-methyl-3-(morpholinosulfonyl)phenyl)-3-(p-tolyl)-1H-pyrazole-4-carboxamide] | inhibition at 20 µM (FXR [1]; [4]): 97.9 ± 8.1%; GB FXR Cell Cyto % Inh. ([2]; 4.4 μM): 10.3 ± 0.3%; inhibition at 1.5 µM (FXR [3]; [5]): 130.1 ± 0.7%
84.4 ± 4.1 | 844 ± 10.3 | 10.2 ± 1.6 | 97.8 ± 1.2 | enhanced antagonistic activity | Cc1ccc(-c2nn(Cc3ccc4ccccc4c3)cc2C(=O)Nc2ccc(C)c(S(=O)(=O)N3CCOCC3)c2)cc1 [Compound 4h, N-(4-Methyl-3-(morpholinosulfonyl)phenyl)-1-(naphthalen-2-ylmethyl)-3-(p-tolyl)-1H-pyrazole-4-carboxamide] | GB FXR Cell Cyto % Inh. ([2]; 4.4 μM): 7.9 ± 0.3 (4.4 μM) %
100 ± 3.2 | 849 ± 69 | 76.9 ± 2.7 |  |  | Cc1ccc(-c2nn(CC3CC3)cc2C(=O)Nc2ccc(C)c(S(=O)(=O)N3CCOCC3)c2)cc1 [Compound 4i, 1-(Cyclopropylmethyl)-N-(4-methyl-3-(morpholinosulfonyl)phenyl)-3-(p-tolyl)-1H-pyrazole-4-carboxamide] | fold decrease of activity for hFXR compared to Z26476908 (FXR [3]): 2 fold; inhibition at 1.5 µM (FXR [3]; [5]): 105 ± 4.9%
93.4 ± 3.9 | 515 ± 25.4 | 18.4 ± 1.2 | 99.2 ± 6.4 |  | Cc1ccc(-c2nn(Cc3cccc(C(F)(F)F)c3)cc2C(=O)Nc2ccc(C)c(S(=O)(=O)N3CCOCC3)c2)cc1 [Compound 4k, N-(4-methyl-3-(morpholinosulfonyl)phenyl)-3-(p-tolyl)-1-(3-(trifluoromethyl)benzyl)-1H-pyrazole-4-carboxamide] | 
97.6 ± 3.7 | 2610 ± 290 | 130 ± 16 |  |  | Cc1ccc(-c2nn(CCCCO)cc2C(=O)Nc2ccc(C)c(S(=O)(=O)N3CCOCC3)c2)cc1 [Compound 4l, 1-(4-Hydroxybutyl)-N-(4-methyl-3-(morpholinosulfonyl)phenyl)-3-(p-tolyl)-1H-pyrazole-4-carboxamide] | GB FXR Cell Cyto % Inh. ([2]; 40 μM): 5.9 ± 0.2%; inhibition at 0.493 µM (FXR [3]; [5]): 89.3 ± 0.1%
99.2 ± 2.7 | 3110 ± 580 | 199 ± 21.2 |  | decreased the potency and affinity | COc1cccc(Cn2cc(C(=O)Nc3ccc(C)c(S(=O)(=O)N4CCOCC4)c3)c(C(C)C)n2)c1 [Compound 4m, 3-Isopropyl-1-(3-methoxybenzyl)-N-(4-methyl-3-(morpholinosulfonyl)phenyl)-1H-pyrazole-4-carboxamide] | inhibition at 4.4 µM (FXR [3]; [5]): 101 ± 5.6%
97.8 ± 1.5 | 3490 ± 640 | 160 ± 22.6 |  |  | COc1cccc(-c2nn(C(C)C)cc2C(=O)Nc2ccc(C)c(S(=O)(=O)N3CCOCC3)c2)c1 [Compound 4n, 1-Isopropyl-3-(3-methoxyphenyl)-N-(4-methyl-3-(morpholinosulfonyl)phenyl)-1H-pyrazole-4-carboxamide] | GB FXR Cell Cyto % Inh. ([2]; 4.4 μM): 10.8 ± 0.2%; inhibition at 13.3 µM (FXR [3]; [5]): 150 ± 6.9%
89.4 ± 4.2 | 1240 ± 90 | 42.8 ± 0.5 |  | slightly decreased antagonistic activity | COc1cccc(Cn2cc(C(=O)Nc3ccc(C)c(S(=O)(=O)N4CCOCC4)c3)c(-c3cccc(OC)c3)n2)c1 [Compound 4o, 1-(3-Methoxybenzyl)-3-(3-methoxyphenyl)-N-(4-methyl-3-(morpholinosulfonyl)phenyl)-1H-pyrazole-4-carboxamide] | inhibition at 0.493 µM (FXR [3]; [5]): 114 ± 3.3%
97.6 ± 0.9 | 592.7 ± 3 | 30.9 ± 3.6 | 109 ± 3.6 |  | COc1cccc(Cn2cc(C(=O)Nc3ccc(C)c(S(=O)(=O)N4CCOCC4)c3)c(-c3ccc(C(F)(F)F)cc3)n2)c1 [Compound 4q, 1-(3-Methoxybenzyl)-N-(4-methyl-3-(morpholinosulfonyl)phenyl)-3-(4-(trifluoromethyl)phenyl)-1H-pyrazole-4-carboxamide] | 
62.5 ± 0.8 | 29600 ± 1750 | 3420 ± 190 |  | loss of potency | COCCc1nn(C(C)C)cc1C(=O)Nc1ccc(C)c(S(=O)(=O)N2CCOCC2)c1 [Compound 4r] | inhibition at 40 µM (FXR [3]; at 40 μM, read-out: FXR TR-FRET Binding % Inh.): 98.2 ± 3.8%
95.9 ± 2.4 | 11100 ± 640 | 390 ± 9.4 |  | loss of potency | COCCc1nn(Cc2cccc(OC)c2)cc1C(=O)Nc1ccc(C)c(S(=O)(=O)N2CCOCC2)c1 [Compound 4s] | inhibition at 13.3 µM (FXR [3]; [5]): 113.5 ± 0.8%
3.1 ± 0.1 |  |  |  |  | COc1cccc(Cn2cc(CNc3ccc(C)c(S(=O)(=O)N4CCOCC4)c3)c(-c3cccc(OC)c3)n2)c1 [Compound 9-3, N-((1-(3-Methoxybenzyl)-3-(3-methoxyphenyl)-1H-pyrazol-4-yl)methyl)-4-methyl-3-(morpholinosulfonyl)aniline] | inhibition at 1.48 µM (FXR [3]; at 1.48 μM, read-out: FXR TR-FRET Binding % Inh.): 39.8 ± 1.8%
